We go through 2 molecules from patent US8920334B2, “Method of breath analysis for determining liver capacity or microcirculation using 13C-labeled methacetin substrate” (Freie Universitaet Berlin, priority 2005, dated 2014).

Series [1] has as its target T1, enzyme CYP1A2 in the liver (Homo sapiens, UniProt P05177).
T1 construct: demethylated to paracetamol in a rapid one-step reaction by the enzyme CYP1A2 in the liver; from tissue; host or cells: liver of living patients (in vivo)
T1 sequence (P05177 1-516): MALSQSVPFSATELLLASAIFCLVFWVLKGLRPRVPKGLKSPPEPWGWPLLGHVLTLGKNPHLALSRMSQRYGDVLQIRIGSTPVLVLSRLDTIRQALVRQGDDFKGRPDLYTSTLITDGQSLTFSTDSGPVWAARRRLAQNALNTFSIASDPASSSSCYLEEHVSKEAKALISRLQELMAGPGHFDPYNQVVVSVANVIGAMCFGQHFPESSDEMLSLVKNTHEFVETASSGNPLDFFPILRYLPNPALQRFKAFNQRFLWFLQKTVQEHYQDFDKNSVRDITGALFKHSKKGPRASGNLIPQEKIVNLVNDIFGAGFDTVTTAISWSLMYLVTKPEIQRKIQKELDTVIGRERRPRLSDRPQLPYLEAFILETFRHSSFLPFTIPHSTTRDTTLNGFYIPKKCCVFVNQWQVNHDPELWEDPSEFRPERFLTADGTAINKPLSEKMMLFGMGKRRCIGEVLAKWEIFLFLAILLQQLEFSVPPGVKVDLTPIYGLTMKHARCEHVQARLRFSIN
Description: 13C-methacetin breath test (LiMAx) before and after partial liver resection. In kind it is in vivo. The settings on record: patients, mean. The procedure: This object is achieved by an analysis method, for determining a functional parameter of an organ of a human or animal individual. According to this analysis method, the ^13CO2 content in the air exhaled by the individual is measured, the ^13CO2 in the body of the individual being formed enzymatically from a substrate that has been administered beforehand to the individual, and then being exhaled by the individual. The measurement of the ^13CO2 content in the air exhaled by the individual is carried out using a suitable measurement device. The maximum reaction rate of the substrate in the body of the individual is determined via a change of the measured ^13CO2 content in the air exhaled by the individual using zero-order enzyme kinetics. The analysis method according to the invention therefore proceeds from a consideration of enzyme kinetics.
In a particularly preferred embodiment of the invention, the maximum reaction rate (LiMAx) is calculated through the converted quantity of substrate per unit of time in μg/h/kg bodyweight at variable times at which the maximum value is reached, such that genuine quantification of the maximum functional liver capacity can be made. The calculation is carried out according to the following formula (1), which describes zero-order enzyme kinetics: […]
Here, δ^13C is the difference between the ^13CO2/^12CO2 ratio of the sample and the Pee Dee Belmite (PDB) standard in delta per mil, RPDB is the ^13CO2/^12CO2 ratio of the PDB standard (0.0112375), P is the CO2 production rate (300 mmol/h×surface area of body in m^2), M is the molecular weight of the substrate, and KG is the actual bodyweight of the individual in kg.
The inundation time is preferably used to assess the microcirculation in the liver, so as to be able to detect microcirculation disturbances. Assuming the quickest possible inundation by in particular intravenous bolus injection and substrate excess and the high first-pass effect of methacetin or another substrate, the hepatic microcirculation can be assessed particularly advantageously. The inundation time needed to reach the maximum reaction rate tvmax is determined, said inundation time lengthening in the presence of microcirculation disturbances, since in this case the substrate inundation is not uniformly or completely delayed in all areas of the liver. Liver perfusion can thus be assessed.
The rapid substrate inundation required for the enzyme-kinetic evaluation is ensured by the fact that ^13C methacetin is administered intravenously in a bolus. The intravenous bolus injection ensures an immediate and complete substrate inundation in the liver. The absorption of the test substance ^13C-methacetin is no longer the step that determines the reaction rate. With the preferred dose of 2 mg methacetin per kg bodyweight, a temporary enzyme utilization is also permitted in patients with a healthy liver by a short-term substrate excess. This permits the actual quantitative expressiveness, since zero-order enzyme kinetics are achieved, and only this permits a statement concerning the maximum functional capacity of an enzyme system.
In the context of a prospective study, a method, which is discussed in more detail below, was used to evaluate liver function before and after partial liver resection in a number of patients: • 1. […]

For series [2] the following is noted: cited from earlier work.

On to `COc1ccc(NC(C)=O)cc1` [^13C-methacetin], for which the “inundation time (tvmax) until maximum reaction rate” value in series [1] (after partial liver resection) amounted to 53.5 ± 7.51 min; in series [1] (before partial liver resection) it was 11.9 ± 2.17 min. The “maximum functional liver capacity (LiMAx)” value in series [1] (post-operative day 1 (POD1) after partial liver resection) came out at 141 ± 13 µg/h/kg; in series [1] (post-operative day 10 (POD10) after partial liver resection), 249 ± 17 µg/h/kg; in series [1] (pre-operative (before partial liver resection), intravenous 13C-methacetin solution), 301 ± 24 µg/h/kg.

For `COc1ccc(NC(C)=O)cc1` [methacetin], in series [2] (in water or in an aqueous buffer), the solubility entry is listed as “extremely sparingly soluble”. Besides, the “stability of aqueous solution (crystallization)” value in series [2] (usually aqueous solution) is recorded as “crystallizes out of a usually aqueous solution within a period of hours to days”.
